In general, IC50 refers to the concentration that gives 50% inhibition.

The target of one assay is T1, NK-1 (Homo sapiens, UniProt P25103).
T1 construct: 30 ul/well of a 2×U373 membrane preparation; endogenous in cells; host or cells: U373 cells (crude membrane preparation)
As to the kind of experiment: NK1 radioligand binding assay. Particulars: U373 membrane preparation, [125I]Substance P; Table 1. The protocol:
(§1) NK-1 Binding assay. Crude membrane suspensions were prepared for the NK1 and SERT radioligand binding assays from U373 cells or recombinant HEK-293 cells expressing hSERT, respectively. Cells were harvested from T-175 flasks as follows. The medium is removed from the flasks and the cells rinsed with HBSS without Ca and without Mg. The cells are then incubated for 5-10 minutes in 10 mM Tris-Cl, pH 7.5, 5 mM EDTA before the cells are lifted with a combination of pipetting and scraping, as needed. To prepare membranes, the cell suspension is collected into centrifuge bottles and homogenized for 30 seconds with a Polytron homogenizer. The suspension is centrifuged for 30 min @ 32,000×g, 4° C., then the supernatant is decanted and the pellet resuspended and homogenized in 50 mM Tris-Cl, pH 7.5, 1 mM EDTA for 10 seconds. The suspension is then centrifuged again for 30 min @ 32,000×g, 4° C. The supernatant is decanted and the pellet resuspended in 50 mM Tris-Cl, pH 7.5, 1 mM EDTA and briefly homogenized. A Bradford assay (Bio-rad) is performed and the membrane preparation diluted to 2 mg/ml with 50 mM Tris-Cl, pH 7.5, 1 mM EDTA. Aliquots are prepared, and then frozen and stored at −80° C.
NK1 radioligand binding assay. Compounds are dissolved in 100% DMSO at a concentration 100× the desired highest assay concentration, serially diluted 1:3 in 100% DMSO, and 0.6 ul/well of each solution is dispensed to a Nunc polypropylene, round bottom, 384 well plate. 100% inhibition is defined with 0.6 ul/well of 1 mM L-733,060 (Sigma L-137) dissolved in DMSO. 30 ul/well of a 2×U373 membrane preparation (267 ug/ml in 100 mM Tris-Cl, pH 7.5, 6 mM MgCl2, 0.2% (v/v) Sigma mammalian protease inhibitor cocktail (Sigma P-8340), and 4 ug/ml chymostatin, Sigma C-7268) and 30 ul/well of a 2× radioligand solution (400 pM [^125I]Substance P (Perkin Elmer NEX-190) in 1% (w/v) BSA (Sigma A-2153), 0.1 mg/ml bacitracin, Sigma B-0125) are added to the well and the reaction incubated for 1 hour at room temperature. The contents of the assay plate are then transferred to a Millipore MultiscreenHTS GF/B filter plate which has been pretreated with 0.5% PEI for at least one hour. The plate is vacuum filtered and washed with 7 washes of 100 ul/well of 20 mM Tris-Cl, pH 7.5, 0.5% (w/v) BSA chilled to 4° C. The filtration and washing is completed in less than 90 s. The plates are air-dried overnight, 12 ul/well of MicroScint scintillation fluid added, and the plates counted in a Trilux.
(§2) Data analysis. The raw data are normalized to percent inhibition using control wells defining 0% (DMSO only) and 100% (selective inhibitor) inhibition which are run on each plate. Each plate is run in triplicate, and the concentration response curve thus generated is fit using the four-parameter dose response equation, Y=Bottom+(Top-Bottom)/(1+10̂((LogIC50−X)*HillSlope)) in order to determine the IC50 value for each compound. The radioligand concentration chosen for each assay corresponds to the Kd concentration determined through saturation binding analysis for each assay.

The next assay addresses T2, hSERT (Homo sapiens, UniProt P31645).
T2 construct: expressed in transfected cells; host or cells: HEK-293 cells (crude membrane preparation)
As to the kind of experiment: SERT radioligand binding assay. Particulars: HEK-hSERT membrane preparation, [125I]RTI-55; Table 1; read-out: SERT IC50. How it is done:
as §1
SERT radioligand binding assay. Compounds are dissolved in 100% DMSO at a concentration 100× the desired highest assay concentration, serially diluted 1:3 in 100% DMSO, and 0.4 ul/well of each solution is dispensed to a Nunc polypropylene, round bottom, 384 well plate. 100% inhibition is defined with 0.4 ul/well of 1 mM fluoxetine (Sigma F-132) dissolved in DMSO. 20 ul/well of a 2×HEK-hSERT membrane preparation (15 ug/ml in 50 mM Tris-Cl, pH 7.5, 120 mM NaCl, 5 mM KCl) and 20 ul/well of a 2× radioligand solution (520 pM [^125I]RTI-55 (Perkin-Elmer NEX-272) in 50 mM Tris-Cl, pH 7.5, 120 mM NaCl, 5 mM KCl) are added to each well and the reaction incubated for 1 hour at room temperature. The contents of the assay plate are then transferred to a Millipore MultiscreenHTS GF/B filter plate which has been pretreated with 0.5% PEI for at least one hour. The plate is vacuum filtered and washed with 7 washes of 100 ul/well of 50 mM Tris-Cl, pH 7.5, 120 mM NaCl, 5 mM KCl chilled to 4° C. The filtration and washing is completed in less than 90 s. The plates are air-dried overnight, 12 ul/well of MicroScint scintillation fluid added, and the plates counted in a Trilux.
as §2

T2 sequence (P31645 whole entry): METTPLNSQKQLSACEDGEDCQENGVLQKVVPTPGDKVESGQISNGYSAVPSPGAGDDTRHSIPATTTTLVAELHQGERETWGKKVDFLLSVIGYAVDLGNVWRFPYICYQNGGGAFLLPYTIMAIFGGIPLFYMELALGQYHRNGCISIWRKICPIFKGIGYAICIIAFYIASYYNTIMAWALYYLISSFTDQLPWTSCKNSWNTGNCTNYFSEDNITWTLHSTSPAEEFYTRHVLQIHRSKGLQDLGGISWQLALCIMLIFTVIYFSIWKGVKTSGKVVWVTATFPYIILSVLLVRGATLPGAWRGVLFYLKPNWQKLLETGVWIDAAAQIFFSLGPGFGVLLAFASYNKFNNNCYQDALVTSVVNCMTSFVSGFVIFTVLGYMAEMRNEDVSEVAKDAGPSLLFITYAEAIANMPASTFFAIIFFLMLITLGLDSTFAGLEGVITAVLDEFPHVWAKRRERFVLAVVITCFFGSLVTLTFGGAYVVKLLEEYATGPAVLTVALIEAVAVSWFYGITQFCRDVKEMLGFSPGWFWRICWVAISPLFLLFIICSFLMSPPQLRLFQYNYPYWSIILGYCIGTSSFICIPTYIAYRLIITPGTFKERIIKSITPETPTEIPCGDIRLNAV
T1 sequence (P25103 whole entry): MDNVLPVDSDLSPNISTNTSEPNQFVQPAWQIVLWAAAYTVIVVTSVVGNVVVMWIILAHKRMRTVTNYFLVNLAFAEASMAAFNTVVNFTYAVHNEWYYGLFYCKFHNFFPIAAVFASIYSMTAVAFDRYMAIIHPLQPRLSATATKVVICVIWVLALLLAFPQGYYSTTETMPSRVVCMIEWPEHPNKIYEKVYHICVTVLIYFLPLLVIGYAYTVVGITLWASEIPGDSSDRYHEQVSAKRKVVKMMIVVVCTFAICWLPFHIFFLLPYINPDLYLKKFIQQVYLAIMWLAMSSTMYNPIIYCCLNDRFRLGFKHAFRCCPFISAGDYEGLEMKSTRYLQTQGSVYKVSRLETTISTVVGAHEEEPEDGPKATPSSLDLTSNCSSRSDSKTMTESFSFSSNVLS

On to `Cc1cc(C(C)OCC2(c3ccc(F)cc3)CCN(C)CC2)c2[nH]c(=O)ccc2c1` (centres unmarked) [Example 53], for which the IC50 on NK-1 and on hSERT was 0.01 to 100 nM throughout.

Values taken from patent publication US20090018163A1, “Substituted Heterocyclic Ethers and Their Use in CNS Disorders” (Bristol-Myers Squibb Company, priority 2007, published 2009).
